Source: patent US20050070510A1, “Substituted tetracycline compounds as synergistic antifungal agents” (Paratek Pharmaceuticals, Inc., priority 2001, published 2005)

Tested on: Candida albicans (ATCC#90028)
Assay: Synergetic antifungal activity with amphotericin B, broth microdilution (NCCLS)
Assay type: cell-based
Conditions: amphotericin B alone

amphotericin B MIC	SMILES
0.5 µg/mL	C[C@@H]1[C@H](O)[C@@H](C)/C=C/C=C/C=C/C=C/C=C/C=C/C=C/[C@H](O[C@@H]2O[C@H](C)[C@@H](O)[C@H](N)[C@@H]2O)C[C@@H]2O[C@](O)(C[C@@H](O)C[C@@H](O)[C@H](O)CC[C@@H](O)C[C@@H](O)CC(=O)O[C@H]1C)C[C@H](O)[C@H]2C(=O)O [Amphotericin B]

Tested on: COS-1 cells
Assay: In vitro mammalian cytotoxicity assay (Resazurin)
Conditions: not given

SMILES	In Vitro Cytotoxicity
CN(C)[C@@H]1C(O)=C(C(N)=O)C(=O)[C@@]2(C#N)C(O)=C3C(=O)c4c(O)c(CNC(=O)c5cccnc5)cc(CCC5CCCCC5)c4C[C@@]3(N)C[C@@]12N [JC]	** (toxicities less than 25 μg/mL are represented by **)
CN(C)[C@@H]1C(O)=C(C(N)=O)C(=O)[C@@]2(C#N)C(O)=C3C(=O)c4c(ccc(-c5ccc6c(c5)OCO6)c4O)[C@H](N)[C@@]3(N)[C@H](O)[C@@]12N [CH]	** (toxicities less than 25 μg/mL are represented by **)
CN(C)[C@@H]1C(O)=C(C(N)=O)C(=O)[C@@]2(C#N)C(O)=C3C(=O)c4c(O)c(C(C)(C)C)cc(-c5cccc([N+](=O)O)c5)c4C[C@@]3(N)C[C@@]12N [KS]	** (toxicities less than 25 μg/mL are represented by **)
CCCCCOC(=O)NCc1cc(N(C)C)c2c(c1O)C(=O)C1=C(O)[C@]3(C#N)C(=O)C(C(N)=O)=C(O)[C@@H](N(C)C)[C@]3(N)C[C@]1(N)C2 [NF]	** (toxicities less than 25 μg/mL are represented by **)
CCCCCN(CCCCC)Cc1cc(N(C)C)c2c(c1O)C(=O)C1=C(O)[C@]3(C#N)C(=O)C(C(N)=O)=C(O)[C@@H](N(C)C)[C@]3(N)C[C@]1(N)C2 [MP]	** (toxicities less than 25 μg/mL are represented by **)
CN(C)[C@@H]1C(O)=C(C(N)=O)C(=O)[C@@]2(C#N)C(O)=C3C(=O)c4c(O)c(C(=O)NCC5CCCO5)cc(-c5ccc(F)cc5)c4C[C@@]3(N)C[C@@]12N (some centres unmarked) [KZ]	* (toxicities greater than >25 μg/ml are represented by *)
CN(C)[C@@H]1C(O)=C(C(N)=O)C(=O)[C@@]2(C#N)C(O)=C3C(=O)c4c(O)ccc(OC5=CC(c6cccc([N+](=O)O)c6)=CC5)c4C[C@@]3(N)C[C@@]12N [EC]	* (toxicities greater than >25 μg/ml are represented by *)
CN(C)[C@@H]1C(O)=C(C(N)=O)C(=O)[C@@]2(C#N)C(O)=C3C(=O)c4c(ccc(Nc5nc(-c6ccc(F)cc6)cs5)c4O)C[C@@]3(N)C[C@@]12N [EB]	* (toxicities greater than >25 μg/ml are represented by *)
CN(C)[C@@H]1C(O)=C(C(N)=O)C(=O)[C@@]2(C#N)C(O)=C3C(=O)c4c(O)cccc4[C@H](OSC(F)(F)C(F)(F)F)[C@@]3(N)[C@H](O)[C@@]12N [AS]	** (toxicities less than 25 μg/mL are represented by **)
CN(C)[C@@H]1C(O)=C(C(N)=O)C(=O)[C@@]2(C#N)C(O)=C3C(=O)c4c(ccc(Nc5nc(-c6cccc([N+](=O)O)c6)cs5)c4O)[C@H](O)[C@@]3(N)[C@H](O)[C@@]12N [DV]	** (toxicities less than 25 μg/mL are represented by **)
CN(C)[C@@H]1C(O)=C(C(N)=O)C(=O)[C@@]2(C#N)C(O)=C3C(=O)c4c(O)c(C(C)(C)C)cc(CN)c4C[C@@]3(N)C[C@@]12N [RC]	* (toxicities greater than >25 μg/ml are represented by *)
CCCCCCc1ccc(O)c2c1C[C@@]1(N)C[C@@]3(N)[C@H](N(C)C)C(O)=C(C(N)=O)C(=O)[C@@]3(C#N)C(O)=C1C2=O [JE]	** (toxicities less than 25 μg/mL are represented by **)
CN(C)c1cc(NCC2=CC=C(C(C)(C)C)CC2)c(O)c2c1C[C@@]1(N)C[C@@]3(N)[C@H](N(C)C)C(O)=C(C(N)=O)C(=O)[C@@]3(C#N)C(O)=C1C2=O [TX]	** (toxicities less than 25 μg/mL are represented by **)
COC(=O)/C=C/c1cccc(-c2ccc(O)c3c2C[C@@]2(N)C[C@@]4(N)[C@H](N(C)C)C(O)=C(C(N)=O)C(=O)[C@@]4(C#N)C(O)=C2C3=O)c1 [UF]	** (toxicities less than 25 μg/mL are represented by **)
CC(C)CNC(=O)NCc1cc(N(C)C)c2c(c1O)C(=O)C1=C(O)[C@]3(C#N)C(=O)C(C(N)=O)=C(O)[C@@H](N(C)C)[C@]3(N)C[C@]1(N)C2 [MF]	* (toxicities greater than >25 μg/ml are represented by *)
CN(C)c1cc(-c2ccc3c(c2)OCO3)c(O)c2c1C[C@@]1(N)C[C@@]3(N)[C@H](N(C)C)C(O)=C(C(N)=O)C(=O)[C@@]3(C#N)C(O)=C1C2=O [EH]	** (toxicities less than 25 μg/mL are represented by **)
CN(C)[C@@H]1C(O)=C(C(N)=O)C(=O)[C@@]2(C#N)C(O)=C3C(=O)c4c(O)ccc(C#Cc5cccc(C#N)c5)c4C[C@@]3(N)C[C@@]12N [GQ]	* (toxicities greater than >25 μg/ml are represented by *)

SMILES	In Vitro Cytotoxicity
CN(C)[C@@H]1C(O)=C(C(N)=O)C(=O)[C@@]2(C#N)C(O)=C3C(=O)c4c(O)ccc(-c5ccc(CN6CCCC6)cc5)c4C[C@@]3(N)C[C@@]12N [HM]	* (toxicities greater than >25 μg/ml are represented by *)
CCCC/C(Cl)=C/c1ccc(O)c2c1C[C@@]1(N)C[C@@]3(N)[C@H](N(C)C)C(O)=C(C(N)=O)C(=O)[C@@]3(C#N)C(O)=C1C2=O [IH]	** (toxicities less than 25 μg/mL are represented by **)
CNNC(=O)c1cccc(-c2ccc(O)c3c2C[C@@]2(N)C[C@@]4(N)C(N(C)C)C(O)=C(C(N)=O)C(=O)[C@@]4(C#N)C(O)=C2C3=O)c1 (some centres unmarked) [QY]	* (toxicities greater than >25 μg/ml are represented by *)
CN(C)[C@@H]1C(O)=C(C(N)=O)C(=O)[C@@]2(C#N)C(O)=C3C(=O)c4c(O)ccc(-c5ccc(CNC6CC6)o5)c4C[C@@]3(N)C[C@@]12N [SX]	** (toxicities less than 25 μg/mL are represented by **)
CN(C)c1cc(-c2ccc(F)c(F)c2)c(O)c2c1C[C@@]1(N)C[C@@]3(N)[C@H](N(C)C)C(O)=C(C(N)=O)C(=O)[C@@]3(C#N)C(O)=C1C2=O [EY]	** (toxicities less than 25 μg/mL are represented by **)
CN(C)c1cc(CNC(=O)C(Cc2ccccc2)N(C)C)c(O)c2c1C[C@@]1(N)C[C@@]3(N)[C@H](N(C)C)C(O)=C(C(N)=O)C(=O)[C@@]3(C#N)C(O)=C1C2=O (some centres unmarked) [SU]	** (toxicities less than 25 μg/mL are represented by **)
CCN(CC)Cc1ccc(OC)c(-c2ccc(O)c3c2C[C@@]2(N)C[C@@]4(N)[C@H](N(C)C)C(O)=C(C(N)=O)C(=O)[C@@]4(C#N)C(O)=C2C3=O)c1 [LR]	* (toxicities greater than >25 μg/ml are represented by *)
CCCCCN(Cc1cccc(-c2ccc(O)c3c2C[C@@]2(N)C[C@@]4(N)[C@H](N(C)C)C(O)=C(C(N)=O)C(=O)[C@@]4(C#N)C(O)=C2C3=O)c1)P(=O)(OCC)OCC [KO]	* (toxicities greater than >25 μg/ml are represented by *)
CCC(C)CNCc1cc(N(C)C)c2c(c1O)C(=O)C1=C(O)[C@]3(C#N)C(=O)C(C(N)=O)=C(O)[C@@H](N(C)C)[C@]3(N)C[C@]1(N)C2 (some centres unmarked) [SZ]	* (toxicities greater than >25 μg/ml are represented by *)
CN(C)[C@@H]1C(O)=C(C(N)=O)C(=O)[C@@]2(C#N)C(O)=C3C(=O)c4c(O)ccc(C#CCCCCC#Cc5ccc(O)c6c5C[C@@]5(N)C[C@@]7(N)[C@H](N(C)C)C(O)=C(C(N)=O)C(=O)[C@@]7(C#N)C(O)=C5C6=O)c4C[C@@]3(N)C[C@@]12N [Compound NB, 1,8-Di-7-Sancyclinyl-1,8-Heptyne]	* (toxicities greater than >25 μg/ml are represented by *)
CN(C)[C@@H]1C(O)=C(C(N)=O)C(=O)[C@@]2(C#N)C(O)=C3C(=O)c4c(O)ccc(-c5ccc(I)c(C=O)c5)c4C[C@@]3(N)C[C@@]12N [PL]	** (toxicities less than 25 μg/mL are represented by **)
CCOC(=O)CNCc1ccc(-c2ccc(O)c3c2C[C@@]2(N)C[C@@]4(N)[C@H](N(C)C)C(O)=C(C(N)=O)C(=O)[C@@]4(C#N)C(O)=C2C3=O)cc1 [OS]	** (toxicities less than 25 μg/mL are represented by **)
CC(=O)OCC(=O)Nc1ccc(-c2ccc(O)c3c2C[C@@]2(N)C[C@@]4(N)[C@H](N(C)C)C(O)=C(C(N)=O)C(=O)[C@@]4(C#N)C(O)=C2C3=O)cc1 [UR]	** (toxicities less than 25 μg/mL are represented by **)
CN(C)[C@@H]1C(O)=C(C(N)=O)C(=O)[C@@]2(C#N)C(O)=C3C(=O)c4c(O)cccc4/C(=C\c4ccc5ccccc5c4)[C@@]3(N)[C@H](O)[C@@]12N [DQ]	** (toxicities less than 25 μg/mL are represented by **)
CN(C)[C@@H]1C(O)=C(C(N)=O)C(=O)[C@@]2(C#N)C(O)=C3C(=O)c4c(O)ccc(C#CC5CCCCC5)c4C[C@@]3(N)C[C@@]12N [FI]	** (toxicities less than 25 μg/mL are represented by **)
CN(C)[C@@H]1C(O)=C(C(N)=O)C(=O)[C@@]2(C#N)C(O)=C3C(=O)c4c(ccc(NC(=O)OCC(C)(C)C)c4O)[C@H](N)[C@@]3(N)[C@H](O)[C@@]12N [BI]	** (toxicities less than 25 μg/mL are represented by **)
CN(C)[C@@H]1C(O)=C(C(N)=O)C(=O)[C@@]2(C#N)C(O)=C3C(=O)c4c(ccc(-c5ccccc5)c4O)C(N)[C@@]3(N)[C@H](O)[C@@]12N (some centres unmarked) [AX]	** (toxicities less than 25 μg/mL are represented by **)
